Experimental data taken from patent publication US7687490B2, “2-thioethenyl substituted carbapenem derivatives” (Meiji Seika Kaisha, Ltd., priority 2005, dated 2010).
≈ marks a conversion by molar mass, not a printed value.

Key:
Assay in all cases: Antimicrobial activity, MIC (Test Example 1)
Type in all cases: cell-based
S. pneumoniae PRC53 = settings: Sensitivity Disk agar-N+5% Horse blood, inoculants 10^6 CFU/ml; for MIC: Streptococcus pneumoniae, read-out: minimum inhibitory concentrations (MIC)
Protocol: (§1) The minimum inhibitory concentrations (MIC, μg/ml) of representative compounds, among the novel carbapenem derivatives of the present invention, to various pathogenic bacteria were measured in accordance with the method described in CHEMOTHERAPY, vol. 16, No. 1, 99, 1968. The culture medium for the measurement is Sensitivity Disk agar-N+5% Horse blood, and the amount of inoculants used is 10^6 CFU/ml.

S. aureus 209P JC-1 = settings: Sensitivity Disk agar-N+5% Horse blood, inoculants 10^6 CFU/ml; for MIC: Staphylococcus aureus, read-out: minimum inhibitory concentrations (MIC)
Protocol: as §1

K. pneumoniae GN69 = settings: Sensitivity Disk agar-N+5% Horse blood, inoculants 10^6 CFU/ml; for MIC: Klebsiella pneumoniae, read-out: minimum inhibitory concentrations (MIC)
Protocol: as §1

H. influenzae 870 = settings: Sensitivity Disk agar-N+5% Horse blood, inoculants 10^6 CFU/ml; for MIC: Haemophilus influenzae, read-out: minimum inhibitory concentrations (MIC)
Protocol: as §1

S. pneumoniae 197 = settings: Streptococcus pneumoniae, Sensitivity Disk agar-N+5% Horse blood, inoculants 10^6 CFU/ml, read-out: minimum inhibitory concentrations (MIC)
Protocol: as §1

E. coli W4680 = settings: Sensitivity Disk agar-N+5% Horse blood, inoculants 10^6 CFU/ml; for MIC: Escherichia coli, read-out: minimum inhibitory concentrations (MIC)
Protocol: as §1

M. catarrhalis W-500 = settings: Moraxella catarrhalis, W500, Sensitivity Disk agar-N+5% Horse blood, inoculants 10^6 CFU/ml, read-out: minimum inhibitory concentrations (MIC)
Protocol: as §1

S. pneumoniae R6 = settings: Sensitivity Disk agar-N+5% Horse blood, inoculants 10^6 CFU/ml; for MIC: Streptococcus pneumoniae, read-out: minimum inhibitory concentrations (MIC)
Protocol: as §1

H. influenzae PRC44 = settings: Sensitivity Disk agar-N+5% Horse blood, inoculants 10^6 CFU/ml; for MIC: Haemophilus influenzae, read-out: minimum inhibitory concentrations (MIC)
Protocol: as §1

H. influenzae Rd = settings: Sensitivity Disk agar-N+5% Horse blood, inoculants 10^6 CFU/ml; for MIC: Haemophilus influenzae, read-out: minimum inhibitory concentrations (MIC)
Protocol: as §1

SMILES | MIC (S. pneumoniae PRC53) [µg/mL] | MIC (S. aureus 209P JC-1) [µg/mL] | MIC (K. pneumoniae GN69) [µg/mL] | MIC (H. influenzae 870) [µg/mL] | MIC (S. pneumoniae 197) [µg/mL] | MIC (E. coli W4680) [µg/mL] | MIC (M. catarrhalis W-500) [µg/mL] | MIC (S. pneumoniae R6) [µg/mL] | MIC (H. influenzae PRC44) [µg/mL] | MIC (H. influenzae Rd) [µg/mL] | minimum inhibitory concentrations (MIC) (S. pneumoniae PRC53) [µg/mL] | minimum inhibitory concentrations (MIC) (S. aureus 209P JC-1) [µg/mL] | minimum inhibitory concentrations (MIC) (K. pneumoniae GN69) [µg/mL] | minimum inhibitory concentrations (MIC) (H. influenzae 870) [µg/mL] | minimum inhibitory concentrations (MIC) (E. coli W4680) [µg/mL] | minimum inhibitory concentrations (MIC) (S. pneumoniae R6) [µg/mL] | minimum inhibitory concentrations (MIC) (H. influenzae PRC44) [µg/mL] | minimum inhibitory concentrations (MIC) (H. influenzae Rd) [µg/mL]
C[C@@H](O)[C@H]1C(=O)N2C(C(=O)[O-])=C(S/C=C\c3nc(CO)cs3)[C@H](C)[C@H]12.[Na+] [Example 44, Sodium (1R,5S,6S)-6-((1R)-1-hydroxyethyl)-2-[[(Z)-2-(4-hydroxymethylthiazol-2-yl)ethen-1-yl]thio]-1-methyl-1-carbapen-2-em-3-carboxylate] | 0.063 | 0.031 | 4 | 0.125 | 0.25 | 4 | 0.063 | 0.008 | 0.063 | 0.031 | – | – | – | – | – | – | – | –
C[C@@H](O)[C@H]1C(=O)N2C(C(=O)[O-])=C(S/C=C/c3scnc3CO)[C@H](C)[C@H]12.[Na+] [Example 61, Sodium (1R,5S,6S)-6-((1R)-1-hydroxyethyl)-2-[[(E)-2-(4-hydroxymethylthiazol-5-yl)ethen-1-yl]thio]-1-methyl-1-carbapen-2-em-3-carboxylate] | 0.25 | 0.063 | 8 | 0.125 | 1 | 8 | 0.063 | 0.031 | 0.125 | 0.031 | – | – | – | – | – | – | – | –
C[C@@H](O)[C@H]1C(=O)N2C(C(=O)O)=C(SCCN=CN)C[C@H]12 [IPM, imipenem, reference compound] | 0.125 (≈ 0.418 µM) | 0.016 (≈ 0.0534 µM) | 0.125 (≈ 0.418 µM) | 4 (≈ 13.4 µM) | 1 (≈ 3.34 µM) | 0.125 (≈ 0.418 µM) | 0.063 (≈ 0.21 µM) | 0.008 (≈ 0.0267 µM) | 16 (≈ 53.4 µM) | 1 (≈ 3.34 µM) | – | – | – | – | – | – | – | –
C[C@@H](O)[C@H]1C(=O)N2C(C(=O)[O-])=C(S/C=C\c3scnc3CO)[C@H](C)[C@H]12.[Na+] [Example 41, Sodium (1R,5S,6S)-6-((1R)-1-hydroxyethyl)-2-[[(Z)-2-(4-hydroxymethylthiazol-5-yl)ethen-1-yl]thio]-1-methyl-1-carbapen-2-em-3-carboxylate] | 0.063 | 0.031 | 0.5 | 0.125 | 0.125 | 1 | 0.063 | 0.008 | 0.125 | 0.031 | – | – | – | – | – | – | – | –
C[C@@H](O)[C@H]1C(=O)N2C(C(=O)[O-])=C(S/C=C\c3ncsc3CO)[C@H](C)[C@H]12.[Na+] [Example 78, Sodium (1R,5S,6S)-6-((1R)-1-hydroxyethyl)-2-[[(Z)-2-(5-hydroxymethylthiazol-4-yl)ethen-1-yl]thio]-1-methyl-1-carbapen-2-em-3-carboxylate] | 0.063 | 0.031 | 8 | 0.125 | 0.25 | 8 | 0.25 | 0.008 | 0.063 | 0.031 | – | – | – | – | – | – | – | –
C[C@@H](O)[C@H]1C(=O)N2C(C(=O)[O-])=C(S/C=C\c3scnc3C(=O)N(C)C)[C@H](C)[C@H]12.[Na+] [Example 43, Sodium (1R,5S,6S)-2-[[(Z)-2-(4-N,N-dimethylcarbamoylthiazol-5-yl)ethen-1-yl]thio]-6-((1R)-1-hydroxyethyl)-1-methyl-1-carbapen-2-em-3-carboxylate] | – | – | – | – | – | – | – | – | – | – | 0.063 | 0.063 | 4 | 0.25 | 4 | 0.008 | 0.125 | 0.031
